The values below come from the supplement of paper PMC10307832.

Holding throughout (assay): relative viability (nuclei count vs DMSO), 5 days (fraction); higher = more cells survive
Compound in the assay “VE-821 + Palbociclib”: CS(=O)(=O)c1ccc(-c2cnc(N)c(C(=O)Nc3ccccc3)n2)cc1 [VE-821] + CC(=O)c1c(C)c2cnc(Nc3ccc(N4CCNCC4)cn3)nc2n(C2CCCC2)c1=O [Palbociclib] (partner 0.5 µM)
The method, boiled down:
(§1)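 Relative viability is defined as nuclei in treated wells over nuclei in vehicle wells. Duplicate plates were run and medians reported. Lung cancer cell lines in 1536-well plates were dosed by pin tool one day after seeding, with one drug or with a fixed anchor-drug dose plus five library-drug doses (not always all listed) in √10 steps, and nuclei were counted after 5 days.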

Compound in the assay “VE-821 + Olaparib”: CS(=O)(=O)c1ccc(-c2cnc(N)c(C(=O)Nc3ccccc3)n2)cc1 [VE-821] + O=C(c1cc(Cc2n[nH]c(=O)c3ccccc23)ccc1F)N1CCN(C(=O)C2CC2)CC1 [Olaparib] (partner 8 µM)
The method in brief: as §1

Compound in the assay “VE-821 + Crizotinib”: CS(=O)(=O)c1ccc(-c2cnc(N)c(C(=O)Nc3ccccc3)n2)cc1 [VE-821] + C[C@@H](Oc1cc(-c2cnn(C3CCNCC3)c2)cnc1N)c1c(Cl)ccc(F)c1Cl [Crizotinib] (partner 1 µM)
The method, boiled down:
as §1

Compound in the assay “Vismodegib + OSI-027”: CS(=O)(=O)c1ccc(C(=O)Nc2ccc(Cl)c(-c3ccccn3)c2)c(Cl)c1 [Vismodegib] + COc1cccc2cc(-c3nc([C@H]4CC[C@H](C(=O)O)CC4)n4ncnc(N)c34)[nH]c12 [OSI-027] (partner 0.5 µM)
The method in brief: as §1

Take UMC-11: the relative viability with VE-821 + Palbociclib (first compound 0.08 µM) was 0.339; with VE-821 + Palbociclib (first compound 0.253 µM) it was 0.309; with VE-821 + Palbociclib (first compound 0.8 µM), 0.338; in the assay with VE-821 + Palbociclib (first compound 2.53 µM), 0.377; in the assay with VE-821 + Palbociclib (first compound 8 µM), 0.299; with VE-821 + Olaparib (first compound 0.08 µM), 0.82. In addition, the relative viability with VE-821 + Olaparib (first compound 0.253 µM) was found to be 0.429; with VE-821 + Olaparib (first compound 0.8 µM) it was 0.374; in the assay with VE-821 + Olaparib (first compound 2.53 µM) it was 0.274; with VE-821 + Olaparib (first compound 8 µM) it was 0.208; with VE-821 + Crizotinib (first compound 0.08 µM) it was 0.85; in the assay with VE-821 + Crizotinib (first compound 0.253 µM), 0.681. Further, the relative viability with VE-821 + Crizotinib (first compound 0.8 µM) stood at 0.534; in the assay with VE-821 + Crizotinib (first compound 2.53 µM) it was 0.626; with VE-821 + Crizotinib (first compound 8 µM), 0.238; in the assay with Vismodegib + OSI-027 (first compound 0.08 µM), 0.499; with Vismodegib + OSI-027 (first compound 0.253 µM) it was 0.468; in the assay with Vismodegib + OSI-027 (first compound 0.8 µM), 0.408. The relative viability in the assay with Vismodegib + OSI-027 (first compound 2.53 µM) was 0.43; in the assay with Vismodegib + OSI-027 (first compound 8 µM), 0.46.
